Experimental data as given in patent US10150760B2, “Compounds for use in preparing heterocyclic triazole agonists of the APJ receptor” (AMGEN INC., priority 2016, dated 2018).

What follows are molecules tested against human APJ receptor (Homo sapiens (Human), UniProt P35414) (assay: [35S]GTPγS binding assay on membranes from CHO cells stably expressing human APJ receptor). Details: read-out: Activity hAPJ SPA EC50 IP.
Format: biochemical
In short: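 Membranes from CHO cells stably expressing human APJ incubated with ligand, 0.2 nM [35S]GTPγS and WGA SPA beads in HEPES pH 7.5 with 5 mM MgCl2, 200 mM NaCl, 3 μM GDP, 90 min at RT. Nonspecific binding defined with 100 μM GTPγS; EC50 by non-linear regression.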

Sequence of human APJ receptor (P35414 whole entry): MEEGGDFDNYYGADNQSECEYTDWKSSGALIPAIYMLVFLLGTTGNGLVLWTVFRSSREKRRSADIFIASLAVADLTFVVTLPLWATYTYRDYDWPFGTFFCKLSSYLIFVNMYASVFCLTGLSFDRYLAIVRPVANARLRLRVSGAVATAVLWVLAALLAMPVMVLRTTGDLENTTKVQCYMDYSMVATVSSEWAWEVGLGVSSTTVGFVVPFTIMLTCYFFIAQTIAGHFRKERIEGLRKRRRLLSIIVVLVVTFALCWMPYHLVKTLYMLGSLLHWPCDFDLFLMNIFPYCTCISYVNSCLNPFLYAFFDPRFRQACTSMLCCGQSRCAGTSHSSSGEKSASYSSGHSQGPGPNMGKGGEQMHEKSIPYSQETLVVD

| Molecule | EC50 [nM] |
| --- | --- |
| CO[C@H](c1ncc(Cl)cn1)[C@H](C)S(=O)(=O)Nc1nnc([C@H]2CCC(C)(C)O2)n1C(C)C (single isomer, unassigned) [Example 300.0, (1R,2S)-1-(5-chloropyrimidin-2-yl)-N-(5-((R)-5,5-dimethyltetrahydrofuran-2-yl)-4-isopropyl-4H-1,2,4-triazol-3-yl)-1-methoxypropane-2-sulfonamide or (1R,2S)-1-(5-chloropyrimidin-2-yl)-N-(5-((S)-5,5-dimethyltetrahydrofuran-2-yl)-4-isopropyl-4H-1,2,4-triazol-3-yl)-1-methoxypropane-2-sulfonamide] | 1400 |
| (1R,2S)-1-(5-chloro-2-pyrimidinyl)-N-(4-(1,3-dimethoxy-2-propanyl)-5-((2R)-5,5-dimethyltetrahydro-2-furanyl)-4H-1,2,4-triazol-3-yl)-1-methoxy-2-propanesulfonamide or (1R,2S)-1-(5-chloro-2-pyrimidinyl)-N-(4-(1,3-dimethoxy-2-propanyl)-5-((2S)-5,5-dimethyltetrahydro-2-furanyl)-4H-1,2,4-triazol-3-yl)-1-methoxy-2-propanesulfonamide [Example 308.0] | 410 |
| (1R,2S)-1-(5-chloropyrimidin-2-yl)-N-(4-(2,6-dimethoxyphenyl)-5-((R)-1,1-dioxidotetrahydrothiophen-3-yl)-4H-1,2,4-triazol-3-yl)-1-methoxypropane-2-sulfonamide or (1R,2S)-1-(5-chloropyrimidin-2-yl)-N-(4-(2,6-dimethoxyphenyl)-5-((S)-1,1-dioxidotetrahydrothiophen-3-yl)-4H-1,2,4-triazol-3-yl)-1-methoxypropane-2-sulfonamide [Example 188.0] | 220 |
| COc1cccc(OC)c1-n1c(NS(=O)(=O)[C@@H](C)[C@H](C)c2ncc(Cl)cn2)nnc1[C@H]1OCC[C@H]1C (single isomer, unassigned) [Example 75.0, (2S,3R)-3-(5-chloropyrimidin-2-yl)-N-(4-(2,6-dimethoxyphenyl)-5-((2R,3S)-3-methyltetrahydrofuran-2-yl)-4H-1,2,4-triazol-3-yl)butane-2-sulfonamide or (2S,3R)-3-(5-chloropyrimidin-2-yl)-N-(4-(2,6-dimethoxyphenyl)-5-((2S,3R)-3-methyltetrahydrofuran-2-yl)-4H-1,2,4-triazol-3-yl)butane-2-sulfonamide] | 210 |
| C[C@H](c1ncc(Cl)cn1)[C@H](C)S(=O)(=O)Nc1nnc([C@@H]2COCCO2)n1C1CCOCC1 (single isomer, unassigned) [Example 246.0, (2S,3R)-3-(5-chloro-2-pyrimidinyl)-N-(5-((2R)-1,4-dioxan-2-yl)-4-(tetrahydro-2H-pyran-4-yl)-4H-1,2,4-triazol-3-yl)-2-butanesulfonamide or (2S,3R)-3-(5-chloro-2-pyrimidinyl)-N-(5-((2S)-1,4-dioxan-2-yl)-4-(tetrahydro-2H-pyran-4-yl)-4H-1,2,4-triazol-3-yl)-2-butanesulfonamide] | > 4200 |
| (1S,2S)-1-(5-chloro-2-pyrimidinyl)-N-(4-(1,3-dimethoxy-2-propanyl)-5-((2R,5R)-5-methyltetrahydro-2-furanyl)-4H-1,2,4-triazol-3-yl)-1-(2-propanyloxy)-2-propanesulfonamide or (1S,2S)-1-(5-chloro-2-pyrimidinyl)-N-(4-(1,3-dimethoxy-2-propanyl)-5-((2S,5S)-5-methyltetrahydro-2-furanyl)-4H-1,2,4-triazol-3-yl)-1-(2-propanyloxy)-2-propanesulfonamide [Example 355.0] | 1.2 |
| COc1cccc(OC)c1-n1c(NS(=O)(=O)[C@@H](C)[C@@H](OC(C)C)c2cnc(C)cn2)nnc1[C@H]1CCCO1 (single isomer, unassigned) [Example 67.0] | 180 |
| (1S,2S)-1-(5-chloropyrimidin-2-yl)-1-isopropoxy-N-(4-(1-(methoxymethyl)cyclopropyl)-5-((R)-tetrahydrofuran-3-yl)-4H-1,2,4-triazol-3-yl)propane-2-sulfonamide or (1S,2S)-1-(5-chloropyrimidin-2-yl)-1-isopropoxy-N-(4-(1-(methoxymethyl)cyclopropyl)-5-((S)-tetrahydrofuran-3-yl)-4H-1,2,4-triazol-3-yl)propane-2-sulfonamide [Example 319.0] | 130 |
| COc1cccc(OC)c1-n1c(NS(=O)(=O)[C@@H](C)[C@H](C)c2cnc(C)cn2)nnc1[C@H]1CCCOC1 (single isomer, unassigned) [Example 134.0, (2S,3R)-N-(4-(2,6-dimethoxyphenyl)-5-((R)-tetrahydro-2H-pyran-3-yl)-4H-1,2,4-triazol-3-yl)-3-(5-methylpyrazin-2-yl)butane-2-sulfonamide or (2S,3R)-N-(4-(2,6-dimethoxyphenyl)-5-((S)-tetrahydro-2H-pyran-3-yl)-4H-1,2,4-triazol-3-yl)-3-(5-methylpyrazin-2-yl)butane-2-sulfonamide] | 400 |
| COc1cccc(OC)c1-n1c(NS(=O)(=O)CCc2ncc(Cl)cn2)nnc1[C@H]1CCCO1 [Example 389.0, 2-(5-chloro-2-pyrimidinyl)-N-(4-(2,6-dimethoxyphenyl)-5-((2R)-tetrahydro-2-furanyl)-4H-1,2,4-triazol-3-yl)ethanesulfonamide] | 96 |
| COCC1(n2c(NS(=O)(=O)[C@@H](C)[C@H](OC)c3ncc(Cl)cn3)nnc2[C@H]2CC[C@@H](C)O2)CC1 (single isomer, unassigned) [Example 286.0, (1R,2S)-1-(5-chloropyrimidin-2-yl)-1-methoxy-N-(4-(1-(methoxymethyl)cyclopropyl)-5-((2S,5S)-5-methyltetrahydrofuran-2-yl)-4H-1,2,4-triazol-3-yl)propane-2-sulfonamide or (1R,2S)-1-(5-chloropyrimidin-2-yl)-1-methoxy-N-(4-(1-(methoxymethyl)cyclopropyl)-5-((2R,5R)-5-methyltetrahydrofuran-2-yl)-4H-1,2,4-triazol-3-yl)propane-2-sulfonamide] | 1.4 |
| (2S,3R)-N-(4-(1,3-dimethoxy-2-propanyl)-5-((2R,5R)-5-methyltetrahydro-2-furanyl)-4H-1,2,4-triazol-3-yl)-3-(5-methoxy-2-pyrazinyl)-2-butanesulfonamide or (2S,3R)-N-(4-(1,3-dimethoxy-2-propanyl)-5-((2S,5S)-5-methyltetrahydro-2-furanyl)-4H-1,2,4-triazol-3-yl)-3-(5-methoxy-2-pyrazinyl)-2-butanesulfonamide [Example 376.0] | 120 |
| C[C@H](c1ncc(Cl)cn1)[C@H](C)S(=O)(=O)Nc1nnc([C@@H]2CCOC2)n1[C@H](C)c1ccon1 (single isomer, unassigned) [Example 416.0, (2S,3R)-3-(5-chloro-2-pyrimidinyl)-N-(4-((1R)-1-(1,2-oxazol-3-yl)ethyl)-5-((3S)-tetrahydro-3-furanyl)-4H-1,2,4-triazol-3-yl)-2-butanesulfonamide or (2S,3R)-3-(5-chloro-2-pyrimidinyl)-N-(4-((1S)-1-(1,2-oxazol-3-yl)ethyl)-5-((3S)-tetrahydro-3-furanyl)-4H-1,2,4-triazol-3-yl)-2-butanesulfonamide] | 190 |
